# Reference: patent EP3441077A1, “PHARMACEUTICAL PRODUCT FOR TREATING ANKYLOSING SPONDYLITIS AND COMBINED IMMUNE DEFECT, AND PREPARATION AND APPLICATION THEREOF” (Beijing Lu De Kai Qi Co., Ltd., priority 2016, dated 2017)
# Like-named read-outs stand apart in the source and are kept apart here. Marks after values point to notes of the source that are not given here.
# Key:
# [1] = test system: patients with ankylosing spondylitis; test: Clinical trial in patients with ankylosing spondylitis; assay type: in vivo, human; conditions: for Cure / Effective / Improved / Ineffective / excellence / upturn: 100 patients per group
# Protocol: Clinical trials were performed in patients with ankylosing spondylitis. The criteria for inclusion are as follows: • (1) The New York Standard for Ankylosing Spondylitis revised in 1984 is met. • (2) The diagnostic criteria for the "renal deficiency and cold syndrome" of Ankylosing Spondylitis in Traditional Chinese Medicine is met. It is obtained by reference to the "Guidelines for Clinical Research of New Pharmaceutical products for Treating Arthralgia" and combined with the clinical experience of Professor Jiao Shude and Professor Yan Xiaoping. […] The five criteria for IBP are: age of onset <40 years old; insidious onset; improvement after exercise; no improvement after rest; and nocturnal pain (improvement after getting up). If the patient meets 4 of them, he or she can be confirmed to have IBP (sensitivity 77.0%, specificity 91.7%). […] Treatment method: a randomized control method was used. There are 100 patients in the test group, 100 patients in the control group 1, and 100 patients in the control group 2. […] Control group 1: the patients were orally administrated with loxoprofen sodium from Sankyo Co. Ltd., Japan twice a day in the morning and evening, and 3 months is a course of treatment. Control group 2: the patients were orally administrated with the traditional Chinese medicine for treating ankylosing spondylitis prepared in the examples of CN102091137B twice a day in the morning and evening, and 3 months is a course of treatment. No other medications for ankylosing spondylitis is administered during the course of treatment. In particular, the traditional Chinese medicine for treating ankylosing spondylitis prepared in the examples of CN102091137B is prepared as following: weighing the raw materials that contain in the formula ,that is 10 g of rhizoma cibotii, 15 g of pilose antler, 10 g of dipsacus asper, 5 g of scorpio, 15 g of kudzu vine root, 12 g of chuanxiong rhizome, 5 g of caulis spatholobi, 15 g of white paeony root, 15 g of common peony root, 10g of safflower carthamus, 15 g of medicinal cyathula root and 10 g of white mustard seed, adding 1500 ml of water, decocting with slow fire to concentrate the medicine liquid to 250 ml, filtering dregs of a decoction and preparing a decoction. Table 8 Indicators for efficacy evaluation in this clinical trial [table] […] Table 9 Statistical results of clinical trial After taking three courses of treatment, all the patients in the three groups stopped taking medication, and whether the symptoms were aggravated or slowed down was observed one month, three months, and twelve months after pharmaceutical product withdrawal. If the symptoms after a period of drug withdrawal were more serious than the symptoms at the time of drug withdrawal, it was labeled as "-", otherwise labeled as "+". If there were two grades in the difference, it was labeled as […]. For example, if the therapeutic effect of patient A at the time of drug withdrawal was improved, and the therapeutic effect twelve months after drug withdrawal was Ineffective, it was labeled as "-2". Table 10 Statistical results of clinical trial after pharmaceutical product withdrawal
# [2] = test system: mouse bone marrow polychromatic erythrocytes; conditions: 50 mg/kg•bw, positive control; for Number of micronucleus: 5000 cells examined; for Micronucleus rate (‰): P<0.01 vs negative control
# Protocol: Test animals: The healthy Kunming mice provided by the Experimental Animal Center of the National Institute for the Control of Pharmaceutical and Biological Products are selected. • 3. Mouse bone marrow polychromatic erythrocyte micronucleus assay The assay was carried out via oral gavage and the administration was performed twice at intervals of 24 hr. 50 mice weighing 25-30 g are randomly divided into 5 groups according to body weight, 10 in each group, half male and half female. […] The doses of the pharmaceutical product for treating ankylosing spondylitis for combined immunodeficiency according to the present invention are 2.50, 5.00, and 10.00 g/kg•bw, respectively, which were adjusted to the desired concentration with distilled water. The animals were sacrificed by cervical dislocation six hours after the last administration of the pharmaceutical product for treating ankylosing spondylitis for combined immunodeficiency according to the present invention. The bone marrow of sternum was diluted with calf serum, smeared, fixed in methanol, and stained with Giemsa. Under the light microscope, 1000 polychromatic erythrocytes (PRC) were measured per animal, and the incidence of micronucleus was determined by the permillage of micronucleus-containing PRC and statistical process is performed.
# male mice = conditions: 40 mg/kg•bw, positive control
# Protocol: Sperm abnormality assay in mice 50 sexually mature male mice weighing 30-35 g is randomly divided into 5 groups. […] The doses of the pharmaceutical product for treating ankylosing spondylitis for combined immunodeficiency according to the present invention is 1.25, 2.50, and 5.00 g/kg•bw, respectively, which were adjusted to the desired concentration with distilled water. The mice were administered via oral gavage once a day for 5 days, and the animals were sacrificed 30 days after the last gavage. The epididymis is sectioned and stained with eosin. Five animals were measured in each group and 1000 spermatozoa with intact structural were measured per animal, by which the incidence of sperm abnormality (in percentage) was calculated and statistical process is performed. […] Table 3 Statistical results of sperm abnormality assay in mice
# [3] = At the time of drug withdrawal (after three courses)
# [4] = One course of treatment (3 months), oral twice a day, graded per Table 8
# [5] = One month after drug withdrawal
# [6] = Three courses of treatment, oral twice a day, graded per Table 8
# [7] = Twelve months after drug withdrawal
# [8] = three months after drug withdrawal
smiles,measurement,setting,value
CC(C(=O)O)c1ccc(CC2CCCC2=O)cc1 (stereo not shown) [loxoprofen sodium],Cure,[1]; [3],0 case
same,Effective,[1]; [3],36 case
same,Improved,[1]; [3],3 case
same,Ineffective,[1]; [3],61 case
same,Cure,[1]; [4],0 case
same,Ineffective,[1]; [4],82 case
same,excellence,[1]; [4],0 case
same,upturn,[1]; [4],18 case
same,Cure,[1]; [5],0 case
same,Effective,[1]; [5],31 case
same,Improved,[1]; [5],2 case
same,Ineffective,[1]; [5],67 case
same,Cure,[1]; [6],0 case
same,Ineffective,[1]; [6],61 case
same,excellence,[1]; [6],3 case
same,upturn,[1]; [6],36 case
same,Cure,[1]; [7],0 case
same,Effective,[1]; [7],9 case
same,Improved,[1]; [7],0 case
same,Ineffective,[1]; [7],91 case
same,course of the therapeutic effect after withdrawal (in words),[1]; after three courses of treatment and then withdrawal,had more disease relapse
same,Cure,[1]; [8],0 case
same,Effective,[1]; [8],20 case
same,Improved,[1]; [8],0 case
same,Ineffective,[1]; [8],80 case
"O=P1(N(CCCl)CCCl)NCCCO1 (stereo not shown) [cp, cyclophosphamide]",Number of micronucleus,[2]; Female mice,150
same,Micronucleus rate (‰),[2]; Female mice,30.0* ‰
same,Number of micronucleus,[2]; Male mice,167
same,Micronucleus rate (‰),[2]; Male mice,33.4* ‰
same,Number of abnormal sperms,male mice; 5000 sperms examined,487
same,Rate of sperm abnormality (%),male mice; P<0.01 vs negative control,9.74* %
